Series [1] in a line: ThT fibrillation assay (lag time and recovery). Format: physicochemical. As to conditions: Table 2. Here is the method:
This has traditionally been measured by visual inspection of the sample. However, that kind of measurement is very subjective and depending on the observer. Therefore, the application of a small molecule indicator probe is much more advantageous. […] Enzymol.
The constant t0 is the time needed to reach 50% of maximum fluorescence. The two important parameters describing fibril formation are the lag-time calculated by t0−2τ and the apparent rate constant kapp 1/τ.
Samples were prepared freshly before each assay. […] The pH of the sample was adjusted to the desired value using appropriate amounts of concentrated NaOH and HCl. Thioflavin T was added to the samples from a stock solution in H2O to a final concentration of 1 μM.
The plate was sealed with Scotch Pad (Qiagen).
Each run was initiated by incubating the plate at the assay temperature for 10 min. The plate was measured every 20 minutes for a desired period of time. Between each measurement, the plate was shaken and heated as described.
The supernatant was filtered through a 0.22 μm filter and an aliquot was transferred to a HPLC vial.
The measurement points were saved in Microsoft Excel format for further processing and curve drawing and fitting was performed using GraphPad Prism. […] The data set may be fitted to Eq. (1).

For the next series, the target named is glucagon receptor (Homo sapiens, UniProt P47871). Nature of the series: cell-based.
Chain of glucagon receptor (P47871 26-477): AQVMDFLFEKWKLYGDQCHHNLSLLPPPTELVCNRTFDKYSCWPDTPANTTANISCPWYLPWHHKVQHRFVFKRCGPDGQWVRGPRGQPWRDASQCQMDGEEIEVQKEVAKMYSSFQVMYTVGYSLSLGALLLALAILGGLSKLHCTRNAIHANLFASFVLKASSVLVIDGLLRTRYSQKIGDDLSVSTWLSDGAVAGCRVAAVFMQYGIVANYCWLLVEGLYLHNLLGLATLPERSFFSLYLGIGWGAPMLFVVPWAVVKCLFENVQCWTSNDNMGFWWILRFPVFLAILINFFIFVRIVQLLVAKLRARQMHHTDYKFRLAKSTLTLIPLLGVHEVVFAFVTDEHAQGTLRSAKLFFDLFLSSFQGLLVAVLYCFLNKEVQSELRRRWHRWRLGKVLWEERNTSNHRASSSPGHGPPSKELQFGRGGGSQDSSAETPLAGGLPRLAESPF

Numbered stars: 1 amine (or outer) side, 2 acyl side, 3 side chain; on linkers, the order of the positions; unused ones are H or OH. Side chains are listed from the residue outwards. Peptide text beside a SMILES is read from it. * marks the point of attachment. C20 diacid = O=C(O)CCCCCCCCCCCCCCCCCCC(=O)*; C18 diacid = O=C(O)CCCCCCCCCCCCCCCCC(=O)*; γGlu = O=C(O)[C@H](CCC(=O)[*:2])N[*:1]; AEEA = NCCOCCOCC(=O)O

`CC(C)C[C@H](NC(=O)[C@H](Cc1ccc(O)cc1)NC(=O)[C@H](CCCCN)NC(=O)[C@H](CO)NC(=O)[C@H](Cc1ccc(O)cc1)NC(=O)[C@H](CC(=O)O)NC(=O)[C@H](CO)NC(=O)[C@@H](NC(=O)[C@H](Cc1ccccc1)NC(=O)[C@@H](NC(=O)CNC(=O)[C@H](CCC(N)=O)NC(=O)[C@H](CO)NC(=O)[C@@H](N)Cc1c[nH]cn1)[C@@H](C)O)[C@@H](C)O)C(=O)N[C@@H](CC(=O)O)C(=O)N[C@@H](CO)C(=O)N[C@@H](CCCCN)C(=O)N[C@@H](CCCCN)C(=O)N[C@@H](C)C(=O)N[C@@H](CCC(N)=O)C(=O)N[C@@H](CCC(=O)O)C(=O)N[C@@H](Cc1ccccc1)C(=O)N[C@H](C(=O)N[C@@H](CCC(N)=O)C(=O)N[C@@H](Cc1c[nH]c2ccccc12)C(=O)N[C@@H](CC(C)C)C(=O)N[C@@H](CC(C)C)C(=O)N[C@@H](CC(N)=O)C(=O)N[C@H](C(=O)O)[C@@H](C)O)C(C)C` [[K^17, K^18, E^21, L^27] Glucagon, H—HSQGTFTSDYSKYLDSKKAQEFVQWLLNT—OH, reference compound] (H-HSQGTFTSDYSKYLDSKKAQEFVQWLLNT-OH): in series [1], the “ThT assay [Lag time]” value is 1 h. A half-maximal effect at glucagon receptor (EC50) was put at 3 pM.
For the molecule `CC(C)C[C@H](NC(=O)[C@H](Cc1ccc(O)cc1)NC(=O)[C@H](CCCCN)NC(=O)[C@H](CO)NC(=O)[C@H](Cc1ccc(O)cc1)NC(=O)[C@H](CC(=O)O)NC(=O)[C@H](CO)NC(=O)[C@@H](NC(=O)[C@H](Cc1ccccc1)NC(=O)[C@@H](NC(=O)CNC(=O)[C@H](CCC(N)=O)NC(=O)[C@H](CO)NC(=O)[C@@H](N)Cc1c[nH]cn1)[C@@H](C)O)[C@@H](C)O)C(=O)N[C@@H](CC(=O)O)C(=O)N[C@@H](CO)C(=O)N[C@@H](CCCCN)C(=O)N[C@@H](CCCNC(=N)N)C(=O)N[C@@H](C)C(=O)N[C@@H](CCC(N)=O)C(=O)N[C@@H](CCC(=O)O)C(=O)N[C@@H](Cc1ccccc1)C(=O)N[C@H](C(=O)N[C@@H](CCC(N)=O)C(=O)N[C@@H](Cc1c[nH]c2ccccc12)C(=O)N[C@@H](CC(C)C)C(=O)N[C@@H](CC(C)C)C(=O)N[C@@H](CCCCNC(=O)COCCOCCNC(=O)COCCOCCNC(=O)CC[C@H](NC(=O)CCCCCCCCCCCCCCCCC(=O)O)C(=O)O)C(=O)N[C@H](C(N)=O)[C@@H](C)O)C(C)C` [Example 43, N^ε28 ([2-[2-[2-[[2-[2-[2-[[(4S)-5-hydroxy-4-[(18-hydroxy-18-oxooctadecanoyl)amino]-5-oxopentanoyl]amino]ethoxy]ethoxy]acetyl]amino]ethoxy]ethoxy]acetyl]) [Lys^17, Glu^21 Leu^27, Lys^28] Glucagon peptide amide] (H-HSQGTFTSDYSKYLDSKRAQEFVQWLLK([AEEA-AEEA-γGlu-C18 diacid])T-NH2; N-terminus assumed), on glucagon receptor, the EC50 (usually the midpoint of the concentration-response curve) came to 3 pM.
With `CC(C)C[C@H](NC(=O)[C@H](Cc1ccc(O)cc1)NC(=O)[C@H](CCCCN)NC(=O)[C@H](CO)NC(=O)[C@H](Cc1ccc(O)cc1)NC(=O)[C@H](CC(=O)O)NC(=O)[C@H](CO)NC(=O)[C@@H](NC(=O)[C@H](Cc1ccccc1)NC(=O)[C@@H](NC(=O)CNC(=O)[C@H](CCC(N)=O)NC(=O)[C@H](CO)NC(=O)[C@@H](N)Cc1c[nH]cn1)[C@@H](C)O)[C@@H](C)O)C(=O)N[C@@H](CC(=O)O)C(=O)N[C@@H](CO)C(=O)N[C@@H](CCCCN)C(=O)N[C@@H](CCCCN)C(=O)N[C@@H](C)C(=O)N[C@@H](CCC(N)=O)C(=O)N[C@@H](CCC(=O)O)C(=O)N[C@@H](Cc1ccccc1)C(=O)N[C@H](C(=O)N[C@@H](CCCCNC(=O)COCCOCCNC(=O)COCCOCCNC(=O)CC[C@H](NC(=O)CCCCCCCCCCCCCCCCCCC(=O)O)C(=O)O)C(=O)N[C@@H](Cc1c[nH]c2ccccc12)C(=O)N[C@@H](CC(C)C)C(=O)N[C@@H](CC(C)C)C(=O)N[C@@H](CC(N)=O)C(=O)N[C@H](C(=O)O)[C@@H](C)O)C(C)C` [Example 66, N^ε24-[2-[2-[2-[[2-[2-[2-[[(4S)-4-carboxy-4-(19-carboxynonadecanoylamino)butanoyl]amino]ethoxy]ethoxy]acetyl]amino]ethoxy]ethoxy]acetyl]-[Lys^17,Lys^18,Glu^21,Lys^24,Leu^27]-Glucagon] (H-HSQGTFTSDYSKYLDSKKAQEFVK([AEEA-AEEA-γGlu-C20 diacid])WLLNT-OH), the EC50 on glucagon receptor stood at 6350 pM.

For the origin of these results see patent publication US20170051034A1 (Novo Nordisk A/S, priority 2010, published 2017).
